Active and inactive are the calls of the source. The calls are words filed in the database; no cut-off is given here.
Key:
[1] = Drug uptake in human SK-N-FI cells using Cy7-labeled compound incubated for 4 hrs by confocal microscopy; assay type: ADME, cell-based
SK-N-FI [2] = experiment: Antitumor activity against human SK-N-FI cells xenografted in Ncr nude mouse assessed as inhibition of tumor growth by measuring suppression of tumor weight at 3 mg/kg, sc dosed daily for 15 days relative to control; assay type: functional; conditions: for inhibition in vivo at 3 mg/kg: 360 h, read-out: TGI
Integrin alpha-V/beta-3 [3] = target: T1, Integrin alpha-V/beta-3 (Homo sapiens, UniProt P05106+P06756); experiment: Binding affinity to purified integrin alphaVbeta3 receptor (unknown origin) incubated for 2 hrs; assay type: protein-complex assay
Target sequence in this assay (P05106 27-788 limits assumed): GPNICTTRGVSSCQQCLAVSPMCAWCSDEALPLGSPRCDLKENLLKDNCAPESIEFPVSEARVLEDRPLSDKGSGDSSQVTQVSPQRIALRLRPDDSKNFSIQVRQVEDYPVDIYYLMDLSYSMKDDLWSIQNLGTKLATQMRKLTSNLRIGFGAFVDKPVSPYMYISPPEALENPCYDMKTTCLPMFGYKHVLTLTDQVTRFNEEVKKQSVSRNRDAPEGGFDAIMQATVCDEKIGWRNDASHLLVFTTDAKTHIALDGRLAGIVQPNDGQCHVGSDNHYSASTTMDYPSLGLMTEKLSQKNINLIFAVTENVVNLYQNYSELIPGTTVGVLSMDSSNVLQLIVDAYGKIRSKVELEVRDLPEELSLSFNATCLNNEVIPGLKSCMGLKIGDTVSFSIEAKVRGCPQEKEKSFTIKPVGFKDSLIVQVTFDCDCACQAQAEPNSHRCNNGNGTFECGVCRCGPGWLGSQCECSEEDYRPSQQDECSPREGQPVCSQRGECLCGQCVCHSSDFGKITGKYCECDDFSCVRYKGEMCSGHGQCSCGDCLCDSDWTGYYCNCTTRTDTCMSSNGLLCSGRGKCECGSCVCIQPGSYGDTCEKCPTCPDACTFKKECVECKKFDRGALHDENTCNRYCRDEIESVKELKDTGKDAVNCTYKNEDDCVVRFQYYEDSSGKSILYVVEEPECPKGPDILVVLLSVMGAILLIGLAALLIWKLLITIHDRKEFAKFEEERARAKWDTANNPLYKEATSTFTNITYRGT
Target sequence in this assay (P06756 31-889 limits assumed): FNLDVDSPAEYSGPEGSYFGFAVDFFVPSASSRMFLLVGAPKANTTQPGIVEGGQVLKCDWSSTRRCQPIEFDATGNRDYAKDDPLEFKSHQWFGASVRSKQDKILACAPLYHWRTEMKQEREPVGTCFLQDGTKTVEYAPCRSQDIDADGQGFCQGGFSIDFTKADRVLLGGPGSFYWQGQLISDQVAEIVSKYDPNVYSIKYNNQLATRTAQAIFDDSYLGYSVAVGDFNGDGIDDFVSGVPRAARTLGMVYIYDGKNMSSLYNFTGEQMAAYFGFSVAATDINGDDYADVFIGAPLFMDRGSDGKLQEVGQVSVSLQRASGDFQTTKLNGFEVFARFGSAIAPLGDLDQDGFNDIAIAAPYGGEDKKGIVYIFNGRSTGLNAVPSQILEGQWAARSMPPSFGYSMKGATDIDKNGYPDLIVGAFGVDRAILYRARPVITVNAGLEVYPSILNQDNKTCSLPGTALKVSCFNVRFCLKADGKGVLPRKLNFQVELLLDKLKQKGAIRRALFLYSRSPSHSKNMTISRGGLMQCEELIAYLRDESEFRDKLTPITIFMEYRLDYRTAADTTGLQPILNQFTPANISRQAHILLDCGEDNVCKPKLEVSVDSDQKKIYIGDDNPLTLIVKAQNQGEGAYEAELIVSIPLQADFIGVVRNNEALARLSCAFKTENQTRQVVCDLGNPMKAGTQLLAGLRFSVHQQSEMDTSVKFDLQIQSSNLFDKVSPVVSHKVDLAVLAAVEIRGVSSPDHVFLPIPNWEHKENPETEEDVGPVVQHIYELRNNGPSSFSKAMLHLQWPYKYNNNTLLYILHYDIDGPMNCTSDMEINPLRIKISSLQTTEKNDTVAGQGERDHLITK
Target sequence in this assay (P06756 891-1048 limits assumed): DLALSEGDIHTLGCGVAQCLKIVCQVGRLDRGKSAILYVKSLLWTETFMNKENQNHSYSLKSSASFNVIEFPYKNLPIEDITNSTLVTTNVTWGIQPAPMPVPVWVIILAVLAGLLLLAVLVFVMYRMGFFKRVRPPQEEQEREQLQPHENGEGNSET

[4] = Drug uptake in nucleus of human SK-N-FI cells using Cy7-labeled compound incubated for 4 hrs by confocal microscopy; assay type: ADME, subcellular
SK-N-FI [5] = experiment: Antitumor activity against human SK-N-FI cells xenografted in Ncr nude mouse assessed as inhibition of neuroblastoma tumor cell viability at 1 to 10 mg/kg, sc dosed daily for 15 days relative to control; assay type: functional
SK-N-FI [6] = experiment: Antitumor activity against human SK-N-FI cells xenografted in Ncr nude mouse assessed as increase in neuroblastoma tumor apoptosis and necrosis at 1 to 10 mg/kg, sc dosed daily for 15 days relative to control; assay type: functional
Integrin alpha-V/beta-3 [7] = target: T1, Integrin alpha-V/beta-3; experiment: Binding affinity to […] integrin alphaVbeta3 in human SK-N-FI cells using Cy7-labeled compound incubated for 4 hrs by confocal microscopy; assay type: cell-based
SK-N-FI [8] = experiment: Inhibition of cell proliferation of human SK-N-FI cells at 30 to 100 uM incubated for 24 hrs relative to control; assay type: functional
SK-N-FI [9] = experiment: Antitumor activity against human SK-N-FI cells xenografted in Ncr nude mouse assessed as inhibition of tumor growth at 1 to 10 mg/kg, sc dosed daily up to 15 days relative to control; assay type: functional
SK-N-FI [10] = experiment: Inhibition of cell proliferation of human SK-N-FI cells at 30 to 100 uM incubated for 48 hrs relative to control; assay type: functional

| Drug uptake [1] | IC50 (Integrin alpha-V/beta-3 [3]) | Drug uptake [4] | Activity (Integrin alpha-V/beta-3 [7]) | Compound | TGI (SK-N-FI [2]) | inhibition in vivo at 3 mg/kg (SK-N-FI [2]) | inhibition (INH) (SK-N-FI [5]) | Activity (SK-N-FI [6]) | inhibition (INH) (SK-N-FI [8]) | TGI (SK-N-FI [9]) | inhibition (INH) (SK-N-FI [10]) |
| --- | --- | --- | --- | --- | --- | --- | --- | --- | --- | --- | --- |
| 90 to 100% | – | – | – | N=C(N)NCc1ccccc1 | inactive | – | – | – | – | – | – |
| – | 62.4 nM | Active | – | O=C(O)Cc1cc(I)c(Oc2cc(I)c(O)c(I)c2)c(I)c1 [TETRAC] | – | 40 to 50% | – | – | – | – | – |
| – | – | Not Active | Active | N=C(N)NCc1ccc(OCCOCCOCCOCCOCCOCCOCCn2cc(COc3c(I)cc(Oc4c(I)cc(CC(=O)O)cc4I)cc3I)nn2)cc1 | – | 80 to 100% | 80 - 100% | 80 - 100% | 30% | 80 - 100% | 50 - 60% |
